Laboratory results: the supplement of paper PMC10307832

How the values were obtained:
Assay in all cases: relative viability (nuclei count vs DMSO), 5 days (fraction); higher = more cells survive
[1] = compound: C1COCCN1C2=NC(=NC3=C2OC4=C3C=CC=N4)C5=CC(=CC=C5)NC(=O)C6=CN=C(C=C6)N + Cc1cc(Nc2cc(N3CCN(C)CC3)nc(Sc3ccc(NC(=O)C4CC4)cc3)n2)n[nH]1 [Tozasertib] (partner 0.1 µM)
How it was run: (§1)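 Values are medians from duplicate plates. Each reflects relative viability, defined as the nuclei count of treated wells over that of vehicle wells. Lung cancer cell lines in 1536-well plates were pin-tool dosed one day after seeding with one drug alone or with a fixed anchor-drug dose plus five library-drug doses (not always all listed) in √10 steps, then fixed, stained and imaged at 4× after 5 days.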

Entinostat + Foretinib = compound: Nc1ccccc1NC(=O)c1ccc(CNC(=O)OCc2cccnc2)cc1 [Entinostat] + COc1cc2c(Oc3ccc(NC(=O)C4(C(=O)Nc5ccc(F)cc5)CC4)cc3F)ccnc2cc1OCCCN1CCOCC1 [Foretinib] (partner 0.25 µM)
How it was run: as §1

[2] = compound: C1COCCN1C2=NC(=NC3=C2OC4=C3C=CC=N4)C5=CC(=CC=C5)NC(=O)C6=CN=C(C=C6)N + CC(=O)Nc1cccc(-n2c(=O)n(C3CC3)c(=O)c3c(Nc4ccc(I)cc4F)n(C)c(=O)c(C)c32)c1 [Trametinib] (partner 0.02 µM)
How it was run: as §1

[3] = compound: C1COCCN1C2=NC(=NC3=C2OC4=C3C=CC=N4)C5=CC(=CC=C5)NC(=O)C6=CN=C(C=C6)N + COc1cc2c(Oc3ccc(NC(=O)C4(C(=O)Nc5ccc(F)cc5)CC4)cc3F)ccnc2cc1OCCCN1CCOCC1 [Foretinib] (partner 0.25 µM)
How it was run: as §1

Cell Line | relative viability ([1]; first compound 0.02 µM) | relative viability ([1]; first compound 0.06325 µM) | relative viability ([1]; first compound 0.2 µM) | relative viability ([1]; first compound 0.6325 µM) | relative viability ([1]; first compound 2 µM) | relative viability (Entinostat + Foretinib; first compound 0.02 µM) | relative viability (Entinostat + Foretinib; first compound 0.06325 µM) | relative viability (Entinostat + Foretinib; first compound 0.2 µM) | relative viability (Entinostat + Foretinib; first compound 0.6325 µM) | relative viability (Entinostat + Foretinib; first compound 2 µM) | relative viability ([2]; first compound 0.02 µM) | relative viability ([2]; first compound 0.06325 µM) | relative viability ([2]; first compound 0.2 µM) | relative viability ([2]; first compound 0.6325 µM) | relative viability ([2]; first compound 2 µM) | relative viability ([3]; first compound 0.02 µM) | relative viability ([3]; first compound 0.06325 µM) | relative viability ([3]; first compound 0.2 µM) | relative viability ([3]; first compound 0.6325 µM) | relative viability ([3]; first compound 2 µM)
NCI-H2170 | 0.742 | 0.828 | 0.633 | 0.703 | 0.445 | 0.978 | 1.05 | 0.964 | 0.597 | 0.613 | 0.936 | 0.987 | 0.84 | 0.919 | 0.399 | 0.953 | 0.843 | 1.05 | 1.07 | 0.68
HCC-366 | 0.0782 | 0.144 | 0.0599 | 0.0546 | 0.0428 | 0.994 | 0.992 | 0.685 | 0.265 | 0.0997 | 0.4 | 0.341 | 0.394 | 0.231 | 0.138 | 0.946 | 0.931 | 0.913 | 0.892 | 0.714
NCI-H2405 | 0.762 | 0.75 | 0.715 | 0.73 | 0.607 | 1.06 | 1.11 | 0.979 | 0.902 | 0.614 | 0.478 | 0.722 | 0.672 | 0.553 | 0.418 | 0.99 | 1.04 | 1.07 | 1.02 | 0.981
COR-L 105 | 0.325 | 0.352 | 0.329 | 0.359 | 0.31 | 1.19 | 0.997 | 1.14 | 0.677 | 0.548 | 0.421 | 0.411 | 0.415 | 0.403 | 0.465 | 0.915 | 1.28 | 0.764 | 0.969 | 0.777
201T | 0.959 | 1.04 | 0.915 | 0.913 | 0.452 | 1.12 | 1.22 | 1.2 | 0.958 | 0.453 | 0.697 | 0.713 | 0.705 | 0.686 | 0.563 | 1.31 | 1.05 | 1.1 | 1.1 | 1.09
NCI-H2228 | 0.227 | 0.204 | 0.193 | 0.213 | 0.186 | 0.994 | 0.787 | 0.914 | 0.526 | 0.288 | 0.578 | 0.615 | 0.449 | 0.48 | 0.454 | 0.911 | 0.855 | 1 | 0.836 | 0.446
LCLC-103H | 0.537 | 0.511 | 0.471 | 0.46 | 0.35 | 0.802 | 0.66 | 0.612 | 0.666 | 0.384 | 0.66 | 0.693 | 0.693 | 0.62 | 0.479 | 0.872 | 0.777 | 0.789 | 0.643 | 0.474
NCI-H2087 | 0.249 | 0.265 | 0.202 | 0.258 | 0.209 | 1.18 | 1.04 | 0.89 | 0.352 | 0.256 | 0.209 | 0.178 | 0.234 | 0.193 | 0.173 | 1.03 | 1.28 | 1.05 | 0.962 | 0.741
NCI-H358 | – | 0.117 | 0.0984 | 0.099 | 0.0866 | 0.755 | 0.81 | 0.66 | 0.41 | 0.124 | 0.132 | 0.138 | 0.122 | 0.127 | 0.244 | – | 0.721 | 0.537 | 0.68 | 0.477
H3255 | 0.779 | 0.639 | 0.736 | 0.847 | 0.957 | 0.889 | 0.89 | 0.639 | 0.567 | 0.381 | 0.703 | 0.588 | 0.604 | 0.663 | 0.421 | 0.985 | 0.97 | 0.865 | 0.754 | 0.718
NCI-H23 | 0.329 | – | 0.185 | 0.615 | 0.263 | 1.05 | 1.09 | 1.01 | 0.445 | 0.43 | 0.337 | 0.322 | 0.359 | 0.409 | 0.197 | 0.85 | – | 0.943 | 0.815 | 0.493
CAL-12T | 0.325 | 0.27 | 0.206 | 0.24 | 0.177 | 1.17 | 1.14 | 1.27 | 1.07 | 1.01 | 0.28 | 0.324 | 0.272 | 0.354 | 0.303 | 1.12 | 1.49 | 1.19 | 1.21 | 0.941
A-427 | 0.187 | 0.225 | 0.199 | 0.175 | 0.219 | 1.2 | 1.16 | 1.06 | 1 | 0.811 | 0.718 | 0.732 | 0.682 | 0.684 | 0.563 | 1.11 | 1.28 | 1.16 | 0.855 | 0.676
HARA | 0.0879 | 0.0809 | 0.112 | 0.0875 | 0.125 | 0.903 | 0.913 | 1.01 | 0.341 | 0.416 | 0.728 | 0.738 | 0.848 | 0.433 | 0.601 | 0.953 | 1.11 | 1.09 | 0.882 | 0.528
NCI-H1793 | 0.314 | 0.305 | 0.262 | 0.29 | 0.279 | 0.678 | 0.753 | 0.782 | 0.472 | 0.326 | 0.55 | 0.371 | 0.366 | 0.46 | 0.355 | 0.564 | 0.843 | 0.59 | 0.548 | 0.391
NCI-H1623 | 0.376 | 0.457 | 0.411 | 0.432 | 0.461 | 0.862 | 0.84 | 0.766 | 0.512 | 0.375 | – | – | – | – | – | 0.791 | 0.801 | 0.954 | 0.822 | 0.648
